These results are taken from patent US20200113902A1, “COMPOSITIONS AND METHODS FOR TREATING CANCERS WITH COVALENT INHIBITORS OF CYCLIN-DEPENDENT KINASE 7 (CDK7)” (Syros Pharmaceuticals, Inc., priority 2017, published 2020).

Molecules are shown by their SMILES.

Assay [1] has as its system gene expression in MDA-MB468 cells. As to the kind of experiment: Gene expression profiling via RNA-seq (DESeq2, linear model), MDA-MB468. Type of assay: cell-based. The conditions noted are these: four hours, JQ1 125 nM, Compound 1 25 nM. On the procedure:
(§1) In addition, we compared the ability of JQ1 alone, Compound 1 alone, and a combination of JQ1 and Compound 1 to modify expression of various genes in two breast cancer cell lines. Two triple-negative breast cancer cell lines (HCC70 and MDA-MB468) were tested. The cell lines were treated with JQ1, Compound 1, the JQ1/Compound 1 combination, or DMSO for four hours, after which gene expression profiling via RNA-seq was performed. JQ1 was administered to the cells at a 125 nM final concentration in both single agent and combination experiments. Compound 1 was administered to the cells at a 25 nM final concentration in both single agent and combination experiments. Each experiment was performed in triplicate. One replicate of MDA-MB-468 treated with single-agent JQ1 was excluded from further analysis due to quality.
(§2) We employed DESeq2 (Love et al., Genome Biology, 15(12):550, 2014) to identify changes in gene expression due to the JQ1, Compound 1, and JQ1-Compound 1 combination treatment compared to the control DMSO condition based on the RNA-seq data. Genes resulting in a p-value below 0.01 and an absolute logFoldChange above 0.5 were considered to be differentially expressed. […] The same is true for 1459 of 2414 genes in MDA-MB468.
(§3) To identify the genes whose expression is impacted synergistically by the drug combination, we modeled the effect of each drug treatment on expression using a linear model. The expression of each gene after the combination treatment can be thought of as the combined impact of Compound 1, JQ1, and any synergistic interaction between the drug treatments on baseline gene expression. A linear model used to describe this relationship could therefore be represented as:
(§4) Gene Expression after combination treatment=Baseline Expression+Compound 1 effect+JQ1 effect+Combination effect (Synergistic Impact)
(§5) By fitting the expression data for each gene using this model, we were able to evaluate the effect of each treatment, and identify cases where a synergistic interaction between Compound 1 and JQ1 impacts final gene expression. After fitting the linear model to each gene, the weight and p-value of each term can be evaluated. The combination term's weight signifies the mean change resulting from a synergetic impact on expression, with a negative weight indicating synergistic downregulation. Its associated p-value represents the probability that the combination term is not relevant to final gene expression. Using this approach, we identified 1806 genes in HCC70 and 2205 genes in MDA-MB468 whose expression change in the combination treatment was synergistic and whose associated p-value was less than a threshold cutoff of 0.01. The expression of these synergistic genes could not be explained by an additive effect of Compound 1 and JQ1 alone.

The test system of assay [2] is gene expression in HCC70 cells. Nature of the assay: Gene expression profiling via RNA-seq (DESeq2, linear model), HCC70. As to conditions: four hours, JQ1 125 nM, Compound 1 25 nM. Type of assay: cell-based. On the procedure: as §1, §2, §3, §4, §5
In assay [3] the test system is HR^+ breast cancer cell lines. The conditions noted are these: several HR^+ breast cancer cell lines; cited from earlier work.

Consider `Cc1sc2c(c1C)C(c1ccc(Cl)cc1)=N[C@@H](CC(=O)OC(C)(C)C)c1nnc(C)n1-2` [JQ1, reference compound], for which the “Average Expression (TPM) FOXC1” value was determined as 37.112 TPM in assay [1] (DMSO 33.731) and 40.529 TPM in assay [2] (DMSO 40.481). In addition, the entries for the “Average Expression (TPM) GATA3” value in assay [1] (DMSO 34.244) and in assay [2] (DMSO 32.685) were 32.491 TPM and 29.574 TPM, respectively. Besides, the figures for the “Average Expression (TPM) TGIF1” value in assay [1] (DMSO 145.88) and in assay [2] (DMSO 62.523) were 151.60 TPM and 52.509 TPM, respectively.

As for `CN(C)C/C=C/C(=O)Nc1ccc(C(=O)Nc2cccc(Nc3ncc(Cl)c(-c4c[nH]c5ccccc45)n3)c2)cc1` [THZ-1], the “In vitro synergy with fulvestrant” value in assay [3] is on record as “synergy”.
